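Method: 48-hour compound exposure of cells in 96-well plates, five concentrations, linear interpolation of endpoints. TGI: concentration producing complete growth inhibition.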
Legend:
Assay in all cases: NCI tumour cell line growth inhibition, 48 h
NCI-H226 lung = tested on: NCI-H226 lung
IGROV1 ovarian = tested on: IGROV1 ovarian
UACC-257 melanoma = tested on: UACC-257 melanoma
UACC-62 melanoma = tested on: UACC-62 melanoma
OVCAR-4 ovarian = tested on: OVCAR-4 ovarian
SK-OV-3 ovarian = tested on: SK-OV-3 ovarian
A549 NSCLC = tested on: A549 NSCLC
P388/ADR leukemia = tested on: P388/ADR leukemia
NCI-H23 lung = tested on: NCI-H23 lung
HOP-92 NSCLC = tested on: HOP-92 NSCLC
EKVX NSCLC = tested on: EKVX NSCLC
HCT-15 colon = tested on: HCT-15 colon
MALME-3M melanoma = tested on: MALME-3M melanoma
U251 CNS = tested on: U251 CNS
SK-MEL-2 melanoma = tested on: SK-MEL-2 melanoma
DLD-1 colon = tested on: DLD-1 colon
SN12K1 renal = tested on: SN12K1 renal
XF 498 CNS = tested on: XF 498 CNS
OVCAR-5 ovarian = tested on: OVCAR-5 ovarian
LOX IMVI melanoma = tested on: LOX IMVI melanoma
SF-295 CNS = tested on: SF-295 CNS
SNB-78 CNS = tested on: SNB-78 CNS
OVCAR-3 ovarian = tested on: OVCAR-3 ovarian
HCC-2998 colon = tested on: HCC-2998 colon
NCI/ADR-RES ovarian = tested on: NCI/ADR-RES ovarian
HCT-116 colon = tested on: HCT-116 colon
COLO 205 colon = tested on: COLO 205 colon
MCF7 breast = tested on: MCF7 breast
CCRF-CEM leukemia = tested on: CCRF-CEM leukemia
HL-60(TB) leukemia = tested on: HL-60(TB) leukemia
SNB-75 CNS = tested on: SNB-75 CNS
SF-539 CNS = tested on: SF-539 CNS
KM20L2 colon = tested on: KM20L2 colon
NCI-H522 lung = tested on: NCI-H522 lung
SF-268 CNS = tested on: SF-268 CNS
K-562 leukemia = tested on: K-562 leukemia
RXF 393 renal = tested on: RXF 393 renal
CAKI-1 renal = tested on: CAKI-1 renal
NCI-H460 lung = tested on: NCI-H460 lung
M19-MEL melanoma = tested on: M19-MEL melanoma
DMS 273 small cell lung = tested on: DMS 273 small cell lung
SNB-19 CNS = tested on: SNB-19 CNS
HOP-18 NSCLC = tested on: HOP-18 NSCLC
UO-31 renal = tested on: UO-31 renal
KM12 colon = tested on: KM12 colon
SW-620 colon = tested on: SW-620 colon
SK-MEL-5 melanoma = tested on: SK-MEL-5 melanoma
OVCAR-8 ovarian = tested on: OVCAR-8 ovarian
RPMI-8226 leukemia = tested on: RPMI-8226 leukemia
HT29 colon = tested on: HT29 colon
A498 renal = tested on: A498 renal
SN12C renal = tested on: SN12C renal
P388 leukemia = tested on: P388 leukemia
HOP-62 NSCLC = tested on: HOP-62 NSCLC
MOLT-4 leukemia = tested on: MOLT-4 leukemia
SK-MEL-28 melanoma = tested on: SK-MEL-28 melanoma

COc1cc2c(cc1Oc1ccc(OC)c3c1CC1c4c(cc(OC)c(OC)c4-3)CCN1C)CC1c3c(cc(OC)c(OC)c3-2)CCN1C (stereo unspecified)
TGI (NCI-H226 lung): 5.01 µM
TGI (IGROV1 ovarian): 18.7 µM
TGI (UACC-257 melanoma): 3.21 µM
TGI (UACC-62 melanoma): 3.65 µM
TGI (OVCAR-4 ovarian): 10.4 µM
TGI (SK-OV-3 ovarian): 31.9 µM
TGI (A549 NSCLC): 25.9 µM
TGI (P388/ADR leukemia): 5.71 µM
TGI (NCI-H23 lung): 27.4 µM
TGI (HOP-92 NSCLC): 12.4 µM
TGI (EKVX NSCLC): 10.8 µM
TGI (HCT-15 colon): 6.93 µM
TGI (MALME-3M melanoma): 3.38 µM
TGI (U251 CNS): 4.19 µM
TGI (SK-MEL-2 melanoma): 3.79 µM
TGI (DLD-1 colon): 9.17 µM
TGI (SN12K1 renal): 2.54 µM
TGI (XF 498 CNS): 4.29 µM
TGI (OVCAR-5 ovarian): 12.8 µM
TGI (LOX IMVI melanoma): 2.48 µM
TGI (SF-295 CNS): 6.11 µM
TGI (SNB-78 CNS): 20.2 µM
TGI (OVCAR-3 ovarian): 14.9 µM
TGI (HCC-2998 colon): 5.89 µM
TGI (NCI/ADR-RES ovarian): 18.3 µM
TGI (HCT-116 colon): 4.49 µM
TGI (COLO 205 colon): 2.95 µM
TGI (MCF7 breast): 8.43 µM
TGI (CCRF-CEM leukemia): 10.2 µM
TGI (HL-60(TB) leukemia): 2.72 µM
TGI (SNB-75 CNS): 10.1 µM
TGI (SF-539 CNS): 3.39 µM
TGI (KM20L2 colon): 3.59 µM
TGI (NCI-H522 lung): 4.66 µM
TGI (SF-268 CNS): 14.8 µM
TGI (K-562 leukemia): 3.92 µM
TGI (RXF 393 renal): 3.81 µM
TGI (CAKI-1 renal): 8.06 µM
TGI (NCI-H460 lung): 3.88 µM
TGI (M19-MEL melanoma): 3.37 µM
TGI (DMS 273 small cell lung): 7.06 µM
TGI (SNB-19 CNS): 14.5 µM
TGI (HOP-18 NSCLC): 23.8 µM
TGI (UO-31 renal): 17.7 µM
TGI (KM12 colon): 9.33 µM
TGI (SW-620 colon): 5.73 µM
TGI (SK-MEL-5 melanoma): 2.92 µM
TGI (OVCAR-8 ovarian): 16.3 µM
TGI (RPMI-8226 leukemia): 3.97 µM
TGI (HT29 colon): 2.94 µM
TGI (A498 renal): 12.6 µM
TGI (SN12C renal): 19.3 µM
TGI (P388 leukemia): 4.02 µM
TGI (HOP-62 NSCLC): 32.5 µM
TGI (MOLT-4 leukemia): 4.41 µM
TGI (SK-MEL-28 melanoma): 3.44 µM
